Experimental findings from patent publication US9758524B2, “4-imidazopyridazin-1-yl-benzamides as Btk inhibitors” (Merck Sharp & Dohme B.V., priority 2011, dated 2017) are described below.

SMILES strings stand for the structures. Where two headings read alike, the source gives them in different places.

One test deals with FynT enzyme (Homo sapiens (Human), UniProt P06241). The test is described as follows: FynT enzyme activity (IMAP fluorescence polarization assay). The following applies: 60 min pre-incubation, 0.2 μM ATP. In kind it is biochemical. On the procedure:
FynT enzyme activity is measured using the IMAP (immobilized metal ion affinity-based fluorescence polarization) assay as outlined below.
Test compounds and FynT enzyme are pre-incubated 60 minutes at room temperature, before adding 5 μL/well of 400 nM Fluorescin labeled substrate peptide (p34cdc2 substrate peptide, e.g. #R7157/#R7172, Molecular Devices) in KR-buffer. Final peptide substrate concentration in assay is 100 nM. […] Following incubation for 2 h at room temperature the enzyme reaction is stopped by adding 40 μL/well IMAP Progressive Binding Solution (according to suppliers (Molecular Devices) protocol using 75% 1× buffer A and 25% 1× buffer B with 1:600 Progressive Binding Solution). After 60 min incubation at room temperature in the dark the FP signal is read. […] Values are calculated as percentage of the difference in readout (ΔmPi) of the controls with and without ATP. EC50 values are determined by curve fitting of the experimental results using Activity Base.
(In fluorescence polarisation assays a small probe gives low polarisation when free and higher when bound to something large.)

A further test deals with Src enzyme (Homo sapiens (Human), UniProt P12931). The test is described as follows: Src enzyme activity (IMAP fluorescence polarization assay). The following applies: read-out: EC50 Src activity values; IMAP, 60 min pre-incubation, 4 μM ATP.
The next test deals with Btk enzyme (His-Btk) (Homo sapiens (Human), UniProt Q06187). The test is described as follows: Btk enzyme activity (IMAP fluorescence polarization assay).
In another test the target is Lck enzyme (Homo sapiens (Human), UniProt P06239). The test is described as follows: Lck enzyme activity (IMAP fluorescence polarization assay).
The target of a further test is Lyn enzyme (Homo sapiens (Human), UniProt P07948). The test is described as follows: Lyn enzyme activity (IMAP fluorescence polarization assay).
Setting [1] is: IMAP, 60 min pre-incubation, 5 μM ATP, bin bound in μM.
The mark [2] stands for this setting: read-out: EC50 Lck activity values, IMAP, 60 min pre-incubation, 6 μM ATP, bin bound in μM.
[3] abbreviates: read-out: EC50 Lyn activity values, 60 min pre-incubation, 2 μM ATP, bin bound in μM.
Where [4] appears, read: read-out: EC50 Btk activity values, IMAP, 60 min pre-incubation, 5 μM ATP, bin bound in nM.
The mark [5] stands for this setting: IMAP, 60 min pre-incubation, 5 μM ATP, bin bound in nM.

FynT enzyme, sequence (P06241 other isoform, or with tags, fused parts or gaps): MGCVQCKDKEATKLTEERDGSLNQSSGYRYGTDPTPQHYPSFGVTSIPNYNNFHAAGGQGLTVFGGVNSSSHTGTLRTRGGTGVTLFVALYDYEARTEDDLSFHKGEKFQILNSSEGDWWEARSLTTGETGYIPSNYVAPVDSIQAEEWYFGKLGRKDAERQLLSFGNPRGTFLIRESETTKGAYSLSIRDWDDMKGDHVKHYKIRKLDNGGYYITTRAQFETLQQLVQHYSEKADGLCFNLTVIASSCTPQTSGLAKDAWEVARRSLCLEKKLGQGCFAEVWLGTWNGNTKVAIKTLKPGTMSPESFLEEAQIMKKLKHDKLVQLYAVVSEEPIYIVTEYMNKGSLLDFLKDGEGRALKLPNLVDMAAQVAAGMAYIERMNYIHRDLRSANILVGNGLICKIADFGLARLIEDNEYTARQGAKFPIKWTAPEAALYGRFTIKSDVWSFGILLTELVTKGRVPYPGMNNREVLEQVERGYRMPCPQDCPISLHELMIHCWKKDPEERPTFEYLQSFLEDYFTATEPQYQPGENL
Lck enzyme, sequence (P06239 whole entry): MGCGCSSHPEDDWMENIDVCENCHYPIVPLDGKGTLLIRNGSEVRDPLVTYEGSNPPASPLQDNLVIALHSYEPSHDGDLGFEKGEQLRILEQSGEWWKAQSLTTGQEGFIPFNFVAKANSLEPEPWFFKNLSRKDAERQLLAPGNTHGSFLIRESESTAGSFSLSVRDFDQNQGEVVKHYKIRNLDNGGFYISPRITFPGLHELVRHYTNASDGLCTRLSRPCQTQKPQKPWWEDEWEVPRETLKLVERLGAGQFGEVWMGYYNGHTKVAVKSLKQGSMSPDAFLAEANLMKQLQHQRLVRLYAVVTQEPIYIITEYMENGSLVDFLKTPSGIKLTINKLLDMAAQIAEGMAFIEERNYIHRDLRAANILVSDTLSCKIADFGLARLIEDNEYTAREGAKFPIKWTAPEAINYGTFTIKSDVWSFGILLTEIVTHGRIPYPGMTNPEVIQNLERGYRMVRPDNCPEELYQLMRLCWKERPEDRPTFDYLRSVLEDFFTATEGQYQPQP
Btk enzyme (His-Btk), sequence (Q06187 whole entry): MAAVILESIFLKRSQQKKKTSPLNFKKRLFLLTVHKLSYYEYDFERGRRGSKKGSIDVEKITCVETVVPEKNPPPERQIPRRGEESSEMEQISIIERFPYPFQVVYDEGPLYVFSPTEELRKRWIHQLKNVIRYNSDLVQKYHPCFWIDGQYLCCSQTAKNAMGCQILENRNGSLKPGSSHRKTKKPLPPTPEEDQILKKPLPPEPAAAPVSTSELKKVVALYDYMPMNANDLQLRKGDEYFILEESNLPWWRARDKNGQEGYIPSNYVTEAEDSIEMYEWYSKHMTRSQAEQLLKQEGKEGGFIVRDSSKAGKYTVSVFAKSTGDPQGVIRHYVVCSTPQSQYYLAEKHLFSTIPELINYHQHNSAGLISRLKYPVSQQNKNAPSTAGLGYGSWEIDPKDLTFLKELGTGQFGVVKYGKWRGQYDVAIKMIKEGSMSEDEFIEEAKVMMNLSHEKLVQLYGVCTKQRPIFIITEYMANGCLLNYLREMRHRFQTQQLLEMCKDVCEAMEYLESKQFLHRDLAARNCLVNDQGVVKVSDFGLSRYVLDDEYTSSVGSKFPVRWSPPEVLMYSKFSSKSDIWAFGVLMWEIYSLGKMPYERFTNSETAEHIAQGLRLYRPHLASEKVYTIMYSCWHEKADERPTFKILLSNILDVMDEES
Src enzyme, sequence (P12931 whole entry, looked up): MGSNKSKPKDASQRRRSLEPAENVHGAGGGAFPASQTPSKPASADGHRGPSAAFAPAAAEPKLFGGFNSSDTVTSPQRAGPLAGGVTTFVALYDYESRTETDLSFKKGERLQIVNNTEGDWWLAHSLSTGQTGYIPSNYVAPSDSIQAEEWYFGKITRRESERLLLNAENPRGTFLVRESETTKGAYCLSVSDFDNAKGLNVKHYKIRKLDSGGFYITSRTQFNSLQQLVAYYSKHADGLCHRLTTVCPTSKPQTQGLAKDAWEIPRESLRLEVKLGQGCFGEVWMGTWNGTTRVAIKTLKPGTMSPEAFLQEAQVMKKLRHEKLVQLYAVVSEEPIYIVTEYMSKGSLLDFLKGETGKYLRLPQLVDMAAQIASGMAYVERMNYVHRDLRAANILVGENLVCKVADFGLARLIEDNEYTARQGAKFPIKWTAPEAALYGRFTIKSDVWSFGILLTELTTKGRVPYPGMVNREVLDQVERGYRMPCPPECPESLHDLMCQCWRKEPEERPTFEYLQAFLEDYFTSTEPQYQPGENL
Lyn enzyme, sequence (P07948 whole entry): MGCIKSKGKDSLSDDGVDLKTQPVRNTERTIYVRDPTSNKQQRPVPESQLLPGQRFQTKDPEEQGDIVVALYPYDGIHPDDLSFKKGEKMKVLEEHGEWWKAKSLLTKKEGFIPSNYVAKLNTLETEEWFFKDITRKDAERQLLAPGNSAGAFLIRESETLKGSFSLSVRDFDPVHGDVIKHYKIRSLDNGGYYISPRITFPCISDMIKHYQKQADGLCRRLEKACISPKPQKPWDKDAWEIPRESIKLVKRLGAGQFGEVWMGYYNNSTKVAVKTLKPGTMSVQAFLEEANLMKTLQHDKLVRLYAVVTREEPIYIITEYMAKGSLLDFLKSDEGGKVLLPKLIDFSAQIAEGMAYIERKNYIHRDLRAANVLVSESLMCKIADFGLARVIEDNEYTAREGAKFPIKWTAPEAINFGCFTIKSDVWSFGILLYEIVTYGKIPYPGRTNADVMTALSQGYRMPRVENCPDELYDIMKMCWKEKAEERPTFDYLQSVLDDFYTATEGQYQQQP
Description for Btk enzyme (His-Btk): Inhibition of kinase activity can be measured using the Immobilized Metal Assay for Phosphochemicals (IMAP) assay. IMAP is a homogeneous fluorescence polarization (FP) assay based on affinity capture of phosphorylated peptide substrates. IMAP uses fluorescein-labeled peptide substrates that, upon phosphorylation by a protein kinase, bind to so-called IMAP nanoparticles, which are derivatized with trivalent metal complexes.
Final peptide substrate concentration in assay is 50 nM.

What is called EC50 is the concentration that produces a half-maximal response. `COC/C=C/C(=O)N1CCC[C@H]1c1nc(-c2ccc(C(=O)Nc3ccccn3)c(F)c2)c2c(N)nccn12` [Example 52]: the EC50 at FynT enzyme was not below 1000 nM; on Src enzyme it was not below 1000 nM; on Btk enzyme (His-Btk), 100 to 1000 nM; on Lck enzyme (setting [2]) it was not below 1 µM; at Lyn enzyme (setting [3]) it was not below 1 µM. For the same compound, the “EC50 Btk activity values” at Btk enzyme (His-Btk) (setting [1]) was less than 1 µM.
With `CC#CC(=O)N1CCC[C@H]1c1nc(-c2ccc(C(=O)Nc3cc(C)ccn3)cc2)c2c(N)nccn12` [Example 8, (S)-4-(8-Amino-3-(1-but-2-ynoylpyrrolidin-2-yl)imidazo[1,5-a]pyrazin-1-yl)-N-(4-methylpyridin-2-yl)benzamide], the EC50 at FynT enzyme was not below 1000 nM; at Src enzyme, not below 1000 nM; on Btk enzyme (His-Btk) (setting [4]), less than 10 nM; at Lck enzyme (setting [2]), not below 1 µM; at Lyn enzyme (setting [3]), not below 1 µM.
Consider `Nc1nccn2c([C@@H]3CCCCN3C(=O)c3ccnc(Cl)n3)nc(-c3ccc(C(=O)Nc4cccnn4)cc3)c12` [Example 74, (S)-4-(8-amino-3-(1-(2-chloropyrimidine-4-carbonyl)piperidin-2-yl)imidazo[1,5-a]pyrazin-1-yl)-N-(pyridazin-3-yl)benzamide], for which the EC50 is not below 1000 nM at FynT enzyme; not below 1000 nM at Src enzyme; 100 to 1000 nM on Btk enzyme (His-Btk); not below 1 µM at Lck enzyme (setting [2]); not below 1 µM on Lyn enzyme (setting [3]). Also, on Btk enzyme (His-Btk) (setting [1]), the “EC50 Btk activity values” is less than 1 µM.
With `CC(=O)SCC(=O)N1CCC[C@H]1c1nc(-c2ccc(C(=O)Nc3ccccn3)cc2)c2c(N)nccn12` [Example 31, (S)—S-2-(2-(8-Amino-1-(4-(pyridin-2-ylcarbamoyl)phenyl)imidazo[1,5-a]pyrazin-3-yl)pyrrolidin-1-yl)-2-oxoethyl ethanethioate], the concentration giving a half-maximal response (EC50) at FynT enzyme was not below 1000 nM; at Src enzyme it was not below 1000 nM; on Btk enzyme (His-Btk) (setting [4]) it was less than 10 nM; on Lck enzyme (setting [2]), not below 1 µM; at Lyn enzyme (setting [3]), not below 1 µM.
Consider `C=CC(=O)N1CCC[C@H]1c1nc(-c2ccc(C(=O)Nc3cc(N4CCCC4)ccn3)cc2)c2c(N)nccn12` [Example 43, (S)-4-(3-(1-acryloylpyrrolidin-2-yl)-8-aminoimidazo[1,5-a]pyrazin-1-yl)-N-(4-(pyrrolidin-1-yl)pyridin-2-yl)benzamide], for which the EC50 at FynT enzyme was not below 1000 nM; at Src enzyme it was not below 1000 nM; on Btk enzyme (His-Btk) (setting [4]) it was less than 10 nM; at Lck enzyme (setting [2]), not below 1 µM; on Lyn enzyme (setting [3]) it was not below 1 µM.
Consider `Nc1nccn2c([C@@H]3CCCCN3C(=O)c3ccnc(Cl)n3)nc(-c3ccc(C(=O)Nc4ncccn4)cc3)c12` [Example 90, (S)-4-(8-amino-3-(1-(2-chloropyrimidine-4-carbonyl)piperidin-2-yl)imidazo[1,5-a]pyrazin-1-yl)-N-(pyrimidin-2-yl)benzamide], for which the EC50 at FynT enzyme was not below 1000 nM; on Src enzyme it was not below 1000 nM; on Btk enzyme (His-Btk), 100 to 1000 nM; on Lck enzyme (setting [2]), not below 1 µM; at Lyn enzyme (setting [3]) it was not below 1 µM. On Btk enzyme (His-Btk) (setting [1]), the “EC50 Btk activity values” is less than 1 µM.
In the case of `COC/C=C/C(=O)N1CCCC[C@H]1c1nc(-c2ccc(C(=O)Nc3ccon3)cc2)c2c(N)nccn12` [Example 54, (S,E)-4-(8-amino-3-(1-(4-methoxybut-2-enoyl)piperidin-2-yl)imidazo[1,5-a]pyrazin-1-yl)-N-(isoxazol-3-yl)benzamide], the EC50 at FynT enzyme is not below 1000 nM; at Src enzyme, not below 1000 nM; on Btk enzyme (His-Btk), 100 to 1000 nM; at Lck enzyme (setting [2]), not below 1 µM; on Lyn enzyme (setting [3]), not below 1 µM. The “EC50 Btk activity values” on Btk enzyme (His-Btk) (setting [1]) was less than 1 µM.
Regarding `C=CC(=O)N1CCCCCC1c1nc(-c2ccc(C(=O)Nc3ccccn3)cc2)c2c(N)nccn12` (stereo not shown) [Example 37, 4-(3-(1-Acrloylazepan-2-yl)-8-aminoimidazo[1,5-a]pyrazin-1-yl)-N-(pyridin-2-yl)benzamide], the EC50 is not below 1000 nM on FynT enzyme; not below 1000 nM at Src enzyme; less than 10 nM at Btk enzyme (His-Btk) (setting [4]); not below 1 µM on Lck enzyme (setting [2]); not below 1 µM at Lyn enzyme (setting [3]).
Turning to `CC(C)(O)C#CC(=O)N1CCC[C@H]1c1nc(-c2ccc(C(=O)Nc3ccccn3)cc2)c2c(N)nccn12` [Example 32, (S)-4-(8-Amino-3-(1-(4-hydroxy-4-methylpent-2-ynoyl)pyrrolidin-2-yl)imidazo[1,5-a]pyrazin-1-yl)-N-(pyridin-2-yl)benzamide], the concentration giving a half-maximal response (EC50) on FynT enzyme was not below 1000 nM; at Src enzyme, not below 1000 nM; on Btk enzyme (His-Btk) (setting [4]), less than 10 nM; at Lck enzyme (setting [2]), not below 1 µM; at Lyn enzyme (setting [3]) it was not below 1 µM.
Turning to `C=CS(=O)(=O)N1CCCC[C@H]1c1nc(-c2ccc(C(=O)Nc3ccccn3)cc2C)c2c(N)nccn12` [Example 66, 4-(8-amino-3-((S)-1-(vinylsulfonyl)piperidin-2-yl)imidazo[1,5-a]pyrazin-1-yl)-3-methyl-N-(pyridin-2-yl)benzamide], the EC50 on FynT enzyme is not below 1000 nM; at Src enzyme, not below 1000 nM; on Btk enzyme (His-Btk) (setting [4]), less than 10 nM; at Lck enzyme (setting [2]), not below 1 µM; on Lyn enzyme (setting [3]), not below 1 µM.
For the compound `CN(C)C/C=C/C(=O)NCc1nc(-c2ccc(C(=O)Nc3ccccn3)cc2)c2c(N)nccn12` [Example 69, (E)-4-(8-amino-3-((4-(dimethylamino)but-2-enamido)methyl)imidazo[1,5-a]pyrazin-1-yl)-N-(pyridin-2-yl)benzamide], the EC50 on FynT enzyme is not below 1000 nM; on Src enzyme it was not below 1000 nM; on Btk enzyme (His-Btk), 10 to 100 nM; on Lck enzyme (setting [2]), not below 1 µM; at Lyn enzyme (setting [3]), not below 1 µM. Also, the “EC50 Btk activity values” at Btk enzyme (His-Btk) (setting [5]) was less than 0.1 µM.
With `N#CCN1CCC[C@H]1c1nc(-c2ccc(C(=O)Nc3ccccn3)cc2)c2c(N)nccn12` [Example 94, (S)-4-(8-amino-3-(1-(cyanomethyl)pyrrolidin-2-yl)imidazo[1,5-a]pyrazin-1-yl)-N-(pyridin-2-yl)benzamide], the EC50 was not below 1000 nM at FynT enzyme; not below 1000 nM on Src enzyme; 100 to 1000 nM on Btk enzyme (His-Btk); not below 1 µM at Lck enzyme (setting [2]); not below 1 µM at Lyn enzyme (setting [3]). Further, the “EC50 Btk activity values” at Btk enzyme (His-Btk) (setting [1]) was less than 1 µM.
Turning to `C=CC(=O)N1CCC[C@H]1c1nc(-c2ccc(C(=O)Nc3cc(C)ccn3)cc2)c2c(N)nccn12` [Example 124, (S)-4-(3-(1-acryloylpyrrolidin-2-yl)-8-aminoimidazo[1,5-a]pyrazin-1-yl)-N-(4-methylpyridin-2-yl)benzamide], the EC50 on FynT enzyme is not below 1000 nM; on Src enzyme, not below 1000 nM; on Btk enzyme (His-Btk) (setting [4]), less than 10 nM; at Lck enzyme it was 0.1 to 1 µM; at Lyn enzyme (EC50 Lyn activity values, 60 min pre-incubation, 2 μM ATP, bin bound in nM), 0.1 to 1 µM. Also, at Lck enzyme (IMAP, 60 min pre-incubation, 6 μM ATP, bin bound in μM), the “EC50 Lck activity values” is less than 1 µM. The “EC50 Lyn activity values” on Lyn enzyme (60 min pre-incubation, 2 μM ATP, bin bound in μM) is less than 1 µM.
With `CCCc1ccnc(NC(=O)c2ccc(-c3nc([C@@H]4CCCN4C(=O)/C=C/CN4CCCC4)n4ccnc(N)c34)cc2)c1` [Example 77, (S,E)-4-(8-amino-3-(1-(4-(pyrrolidin-1-yl)but-2-enoyl)pyrrolidin-2-yl)imidazo[1,5-a]pyrazin-1-yl)-N-(4-propylpyridin-2-yl)benzamide], the EC50 at FynT enzyme was not below 1000 nM; on Src enzyme, not below 1000 nM; at Btk enzyme (His-Btk) (setting [4]), less than 10 nM; at Lck enzyme (setting [2]), not below 1 µM; on Lyn enzyme (setting [3]), not below 1 µM.
`CCc1cnc(NC(=O)c2ccc(-c3nc([C@@H]4CCCCN4C(=O)c4ccnc(Cl)n4)n4ccnc(N)c34)cc2)s1` [Example 118, (S)-4-(8-amino-3-(1-(2-chloropyrimidine-4-carbonyl)piperidin-2-yl)imidazo[1,5-a]pyrazin-1-yl)-N-(5-ethylthiazol-2-yl)benzamide]: the EC50 was not below 1000 nM on FynT enzyme; not below 1000 nM on Src enzyme; less than 10 nM on Btk enzyme (His-Btk) (setting [4]); not below 1 µM at Lck enzyme (setting [2]); not below 1 µM at Lyn enzyme (setting [3]).
For the compound `CN(C)CC#CC(=O)N1CCC[C@H]1c1nc(-c2ccc(C(=O)Nc3ccccn3)cc2)c2c(N)nccn12` [Example 40, (S)-4-(8-Amino-3-(1-(4-(dimethylamino)but-2-ynoyl)pyrrolidin-2-yl)imidazo[1,5-a]pyrazin-1-yl)-N-(pyridin-2-yl)benzamide], the EC50 was not below 1000 nM on FynT enzyme; not below 1000 nM on Src enzyme; 10 to 100 nM at Btk enzyme (His-Btk); not below 1 µM on Lck enzyme (setting [2]); not below 1 µM on Lyn enzyme (setting [3]). Also, the “EC50 Btk activity values” on Btk enzyme (His-Btk) (setting [5]) was less than 0.1 µM.
Consider `C=CC(=O)N1CCC[C@H]1c1nc(-c2ccc(C(=O)Nc3cc(F)ccn3)cc2)c2c(N)nccn12` [Example 42, (S)-4-(3-(1-acryloylpyrrolidin-2-yl)-8-aminoimidazo[1,5-a]pyrazin-1-yl)-N-(4-fluoropyridin-2-yl)benzamide], for which the EC50 at FynT enzyme is not below 1000 nM; on Src enzyme, not below 1000 nM; on Btk enzyme (His-Btk) (setting [4]), less than 10 nM; on Lck enzyme (setting [2]) it was not below 1 µM; at Lyn enzyme (setting [3]), not below 1 µM.
